Test [1] addresses T1, Activin receptor type-1B (Homo sapiens, UniProt P36896).
T1 sequence (P36896 whole entry): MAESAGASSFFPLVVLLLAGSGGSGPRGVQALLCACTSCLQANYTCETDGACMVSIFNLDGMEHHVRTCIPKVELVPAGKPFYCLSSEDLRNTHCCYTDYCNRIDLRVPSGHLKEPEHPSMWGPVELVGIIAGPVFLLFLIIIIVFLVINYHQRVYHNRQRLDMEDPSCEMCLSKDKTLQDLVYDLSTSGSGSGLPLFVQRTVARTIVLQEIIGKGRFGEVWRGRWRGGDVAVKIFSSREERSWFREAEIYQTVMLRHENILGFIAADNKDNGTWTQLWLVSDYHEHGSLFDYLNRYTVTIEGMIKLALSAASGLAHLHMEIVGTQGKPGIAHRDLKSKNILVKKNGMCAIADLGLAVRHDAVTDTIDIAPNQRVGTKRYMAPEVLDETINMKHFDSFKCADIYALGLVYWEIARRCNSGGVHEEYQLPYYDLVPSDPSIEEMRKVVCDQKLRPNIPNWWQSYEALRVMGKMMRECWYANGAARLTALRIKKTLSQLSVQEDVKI

The target in test [2] is T2, AarF domain-containing protein kinase 1 (Homo sapiens, UniProt Q86TW2).
T2 sequence (Q86TW2 whole entry): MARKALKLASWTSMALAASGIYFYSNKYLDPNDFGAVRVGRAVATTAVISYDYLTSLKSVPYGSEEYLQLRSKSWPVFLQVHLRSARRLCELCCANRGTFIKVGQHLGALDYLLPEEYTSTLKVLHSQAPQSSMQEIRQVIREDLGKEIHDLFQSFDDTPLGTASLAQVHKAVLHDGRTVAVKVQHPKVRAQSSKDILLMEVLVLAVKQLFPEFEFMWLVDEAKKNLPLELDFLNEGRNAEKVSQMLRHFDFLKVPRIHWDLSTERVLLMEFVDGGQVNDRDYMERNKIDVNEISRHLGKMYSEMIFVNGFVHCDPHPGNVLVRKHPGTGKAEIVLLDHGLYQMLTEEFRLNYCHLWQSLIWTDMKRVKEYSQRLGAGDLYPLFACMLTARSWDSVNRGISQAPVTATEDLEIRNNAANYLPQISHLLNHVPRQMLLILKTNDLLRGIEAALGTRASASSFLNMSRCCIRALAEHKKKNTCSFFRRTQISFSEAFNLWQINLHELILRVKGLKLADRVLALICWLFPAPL

In test [3] the target is T3, Beta-adrenergic receptor kinase 1 (Homo sapiens, UniProt P25098).
T3 sequence (P25098 whole entry): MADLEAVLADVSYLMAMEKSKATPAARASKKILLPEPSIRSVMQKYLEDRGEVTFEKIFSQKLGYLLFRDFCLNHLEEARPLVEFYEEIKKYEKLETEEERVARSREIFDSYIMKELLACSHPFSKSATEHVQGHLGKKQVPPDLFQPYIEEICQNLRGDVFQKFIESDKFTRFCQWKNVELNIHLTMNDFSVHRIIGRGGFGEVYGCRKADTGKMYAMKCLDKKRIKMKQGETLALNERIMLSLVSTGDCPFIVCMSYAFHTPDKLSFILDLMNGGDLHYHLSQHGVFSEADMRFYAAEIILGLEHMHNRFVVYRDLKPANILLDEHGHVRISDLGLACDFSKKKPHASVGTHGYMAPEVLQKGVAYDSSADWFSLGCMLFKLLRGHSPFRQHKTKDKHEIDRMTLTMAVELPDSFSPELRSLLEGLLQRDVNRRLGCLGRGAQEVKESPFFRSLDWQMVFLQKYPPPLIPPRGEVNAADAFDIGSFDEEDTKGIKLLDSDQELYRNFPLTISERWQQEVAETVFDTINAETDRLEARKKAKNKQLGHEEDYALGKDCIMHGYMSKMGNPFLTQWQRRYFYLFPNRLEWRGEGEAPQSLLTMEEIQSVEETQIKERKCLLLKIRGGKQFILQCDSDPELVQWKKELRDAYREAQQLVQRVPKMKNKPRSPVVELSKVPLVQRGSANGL

The target of test [4] is Adenylate kinase 2, mitochondrial (Homo sapiens, UniProt P54819).
Test [5] deals with T4, Serine/threonine-protein kinase PLK4 (Homo sapiens, UniProt O00444).
T4 sequence (O00444 whole entry): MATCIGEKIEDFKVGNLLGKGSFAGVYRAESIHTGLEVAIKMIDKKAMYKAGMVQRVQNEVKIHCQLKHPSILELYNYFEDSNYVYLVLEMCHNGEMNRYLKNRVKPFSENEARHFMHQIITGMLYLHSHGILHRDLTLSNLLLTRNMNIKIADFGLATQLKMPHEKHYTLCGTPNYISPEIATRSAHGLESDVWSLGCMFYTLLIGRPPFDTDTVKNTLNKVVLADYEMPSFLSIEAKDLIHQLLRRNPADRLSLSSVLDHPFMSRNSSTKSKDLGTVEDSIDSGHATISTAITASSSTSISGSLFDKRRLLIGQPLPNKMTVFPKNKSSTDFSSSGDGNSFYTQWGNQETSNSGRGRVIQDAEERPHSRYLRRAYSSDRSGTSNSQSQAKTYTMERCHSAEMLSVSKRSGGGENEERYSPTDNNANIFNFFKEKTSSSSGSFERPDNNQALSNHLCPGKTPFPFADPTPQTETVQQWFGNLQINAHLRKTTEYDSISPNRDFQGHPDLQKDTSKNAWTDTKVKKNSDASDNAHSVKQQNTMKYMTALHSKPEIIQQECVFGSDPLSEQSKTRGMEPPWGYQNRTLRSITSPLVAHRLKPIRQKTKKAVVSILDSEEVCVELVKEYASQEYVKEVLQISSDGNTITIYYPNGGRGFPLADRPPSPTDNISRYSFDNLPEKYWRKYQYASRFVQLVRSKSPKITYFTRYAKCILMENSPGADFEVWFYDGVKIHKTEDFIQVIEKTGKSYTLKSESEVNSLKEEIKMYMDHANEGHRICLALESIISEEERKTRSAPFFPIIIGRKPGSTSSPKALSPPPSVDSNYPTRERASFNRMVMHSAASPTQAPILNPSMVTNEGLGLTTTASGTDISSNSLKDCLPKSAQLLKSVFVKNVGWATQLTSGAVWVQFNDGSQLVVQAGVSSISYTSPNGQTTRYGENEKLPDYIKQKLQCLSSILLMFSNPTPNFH

In test [6] the target is 26S proteasome regulatory subunit 6B (Homo sapiens, UniProt P43686).
Sequence of 26S proteasome regulatory subunit 6B (P43686 whole entry): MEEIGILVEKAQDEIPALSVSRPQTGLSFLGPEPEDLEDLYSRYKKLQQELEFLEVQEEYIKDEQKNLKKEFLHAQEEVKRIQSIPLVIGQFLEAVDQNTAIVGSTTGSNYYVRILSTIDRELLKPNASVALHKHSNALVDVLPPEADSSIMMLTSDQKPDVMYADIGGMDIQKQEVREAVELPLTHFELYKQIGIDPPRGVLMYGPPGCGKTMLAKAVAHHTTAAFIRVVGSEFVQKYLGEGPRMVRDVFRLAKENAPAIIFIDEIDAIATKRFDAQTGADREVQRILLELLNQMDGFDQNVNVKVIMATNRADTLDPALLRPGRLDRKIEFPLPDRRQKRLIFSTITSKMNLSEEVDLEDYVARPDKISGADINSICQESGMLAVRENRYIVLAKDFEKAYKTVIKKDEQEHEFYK
Test [7] concerns the target Tyrosine-protein kinase SYK (Homo sapiens, UniProt P43405).

Calls of active or inactive are those of the source. For most assays here, no stated cut-off is given here; in the data, actives have a measured Kd and inactives only a lower limit. A value given as a limit tells only on which side of the number the result lay.

Consider `C=CC(=O)Nc1cc(Nc2nccc(-c3cn(C)c4ccccc34)n2)c(OC)cc1N(C)CCN(C)C` [OSIMERTINIB], for which the Kd in test [1], in test [2], in test [3], in test [4], in test [5] and in test [6] was > 30 µM (inactive) in each case. Further, the Kd in test [7] was > 30 µM (inactive).
As to `COCCN1CCN(Cc2ccc(-c3n[nH]c4c3C(=O)c3c(NC(=O)NN5CCOCC5)cccc3-4)cc2)CC1` [RGB-286638], the Kd in test [1], in test [2], in test [3], in test [4], in test [5] and in test [6] was > 30 µM (inactive) in each case. In addition, the Kd in test [7] was > 30 µM (inactive).
For `CC(C)(O)CC(=O)NCCn1ccc2ncnc(Nc3ccc(Oc4cccc(C(F)(F)F)c4)c(Cl)c3)c21` [TAK-285], the Kd in test [1], in test [2], in test [3], in test [4], in test [5] and in test [6] was > 30 µM (inactive) in each case. In addition, in test [7], the Kd was > 30 µM (inactive).
Consider `C[C@@H]1COC(Nc2ccc3ncnc(Nc4ccc(OCc5nccs5)c(Cl)c4)c3c2)=N1` [VARLITINIB], for which the Kd in test [1], in test [2], in test [3], in test [4], in test [5] and in test [6] was > 30 µM (inactive) throughout. Further, the Kd in test [7] was > 30 µM (inactive).
With `O=C(NC[C@H](O)CO)c1ccncc1Nc1ccc(I)cc1F` [PIMASERTIB], the Kd in test [1], in test [2], in test [3], in test [4], in test [5] and in test [6] was > 30 µM (inactive) throughout. Moreover, the Kd in test [7] is > 30 µM (inactive).
Take `CCc1cc2c(cc1N1CCC(N3CCOCC3)CC1)C(C)(C)c1[nH]c3cc(C#N)ccc3c1C2=O` [ALECTINIB]: the Kd in test [1], in test [2], in test [3], in test [4], in test [5] and in test [6] was > 30 µM (inactive) in each case. For the same molecule, the Kd in test [7] was > 30 µM (inactive).
Regarding `Cn1c(=O)n(-c2ccc(C(C)(C)C#N)cc2)c2c3cc(-c4cnc5ccccc5c4)ccc3ncc21` [DACTOLISIB], the Kd in test [1], in test [2], in test [3], in test [4], in test [5] and in test [6] was > 30 µM (inactive) throughout. The Kd in test [7] was > 30 µM (inactive).
Consider `Cc1c(NC(=O)OC[C@@H]2COCCN2)cn2ncnc(Nc3ccc4c(cnn4Cc4cccc(F)c4)c3)c12` [AC-480], for which the Kd in test [1], in test [2], in test [3], in test [4], in test [5] and in test [6] was > 30 µM (inactive) throughout. The Kd in test [7] was > 30 µM (inactive).
`CN1CCN(c2nc(C3=C(c4c[nH]c5ccccc45)C(=O)NC3=O)c3ccccc3n2)CC1` [SOTRASTAURIN]: the Kd in test [1], in test [2], in test [3], in test [4], in test [5] and in test [6] was > 30 µM (inactive) each time. In test [7], the Kd was > 30 µM (inactive).
With `CC(C)CC(=O)Nc1[nH]nc2c1CN(C(=O)C1CCN(C)CC1)C2(C)C` [PHA-793887], the Kd in test [1], in test [2], in test [3], in test [4], in test [5] and in test [6] was > 30 µM (inactive) each time. Moreover, the Kd in test [7] is > 30 µM (inactive).
Take `COc1cccc2cc(-c3nc([C@H]4CC[C@H](C(=O)O)CC4)n4ncnc(N)c34)[nH]c12` [OSI-027]: the dissociation constant Kd in test [1] was 0.549 µM (active); in test [2], > 30 µM (inactive); in test [3], > 30 µM (inactive); in test [4], > 30 µM (inactive); in test [5], > 30 µM (inactive); in test [6], > 30 µM (inactive). Also, the Kd in test [7] was > 30 µM (inactive).
With `COc1ccc2c(OCc3nnc4ccc(-c5ccccc5)nn34)ccnc2c1` [AMG-208], the Kd in test [1], in test [2], in test [3], in test [4], in test [5] and in test [6] was > 30 µM (inactive) each time. Further, the Kd in test [7] was > 30 µM (inactive).
With `COc1cc2ncnc(Nc3ccc(F)c(Cl)c3)c2cc1NC(=O)/C=C/CN1CCCCC1` [DACOMITINIB ANHYDROUS], the Kd in test [1], in test [2], in test [3], in test [4], in test [5] and in test [6] was > 30 µM (inactive) each time. For the same molecule, the Kd in test [7] is > 30 µM (inactive).
For the molecule `O=C(NOC[C@H](O)CO)c1ccc(F)c(F)c1Nc1ccc(I)cc1F` [MIRDAMETINIB], the Kd in test [1], in test [2], in test [3], in test [4], in test [5] and in test [6] was > 30 µM (inactive) throughout. The Kd in test [7] was > 30 µM (inactive).

As a reminder, the Kd is the concentration at which binding is half-saturated.

The record behind these values is ChEMBL document CHEMBL3991601, “The target landscape of clinical kinase drugs” (Science, 2017).
